In patent publication US20070259928A1, “Medicinal Composition for Treating Diabetes” (priority 2004, published 2007):

Tests used:
Goto-Kakizaki (GK) rats = assay: Test Example 2: blood glucose lowering rate 4 hours after oral Compound A in fasted and non-fasted rats; type: in vivo, rat; conditions: 30 mg/kg oral
Protocol: Thirty-six-week old Goto-Kakizaki (GK) rats (purchased from Charles River Japan, Inc.), that spontaneously developed diabetes mellitus, were grouped into 4 groups such as “non-fasting control group”, “non-fasting and Compound A administered group”, “fasting control group”, and “fasting and Compound A administered group” (6 rats per group).
In Compound A administered groups, Compound A (30 mg/kg) was orally administered, and vehicle alone was administered to two control groups. In addition, rats in two fasting groups were fasted from one day before oral administration of Compound A, and rats in two non-fasting groups were fasted immediately after Compound A was administered [the rats were allowed to take food pellets (FR2, manufactured by Funabashi Farm Co., Ltd.) ad libitum until fasting was started]. Blood sample was collected from the tail vein immediately before and 4 hours after oral administration of Compound A. Blood glucose level was determined by electric potential measurement method based on glucose oxidase immobilized electrode using Glucoloader GXT (A&T Corp.). The blood glucose lowering rate (%) at 4 hours after administration of Compound A against the blood glucose level before administration was calculated in individual rats according to the following equation, and the average blood glucose lowering rate and its standard error in each group are summarized in FIG. 2. [Blood glucose lowering rate(%)]=100×([…])/[blood glucose level before administration]

[1] = test system: Zucker diabetic fatty (ZDF) rats; assay: Test Example 1: glycosylated hemoglobin ratio after 6 weeks of repeated, timed administration of Compound A and metformin; type: in vivo, rat; conditions: for glycosylated hemoglobin ratio vs control group: 100-150 mg/kg each once daily
Protocol: Eleven-week old Zucker diabetic fatty (ZDF) rats, that spontaneously developed diabetes mellitus, were grouped into 3 groups (7 rats per group). Feeding was limited to from 17:00 to 9:00, and Compound A and metformin (purchased from Sigma Chemical Co., Ltd.) were repeatedly administered for 6 weeks. Doses of Compound A and metformin were 100-150 mg/kg each once daily, and administered at 9:00 AM (9:00) or 4:00 PM (16:00). In the group administered Compound A at 9:00 AM, metformin was administered at 4:00 PM (AM-Compound A/PM-metformin administered group; Group A), and in the group administered metformin at 9:00 AM, Compound-A was administered at 4:00 PM (AM-metformin/PM-Compound A administered group; Group B). The dose of each compound per day in both groups was fixed at the same. Vehicle alone was administered to the remaining group (control group) twice a day. After repeated administration of the compounds for 6 weeks, blood sample was collected from the tail vein of each rat, and ratios of glycosylated hemoglobin levels in erythrocytes were determined by DCA2000 manufactured by Bayer Medical Ltd. Glycosylated hemoglobin is non-enzymatically formed by binding of glucose to hemoglobin, and the ratio of glycosylated hemoglobin is increased by sustained hyperglycemia. Thus the glycosylated hemoglobin ratio is widely used as an indicator of a long-term therapy (or control of blood glucose levels) in patients with diabetes mellitus. The average and standard error of the glycosylated hemoglobin ratio determined in each group were calculated and are shown in FIG. 1.

## CCOC(=O)[C@H](C)NP(=O)(N[C@@H](C)C(=O)OCC)c1ccc(-c2nc(N)sc2CC(C)C)o1 [Compound A, 2-amino-5-isobutyl-4-{2-[5-(N,N′-bis((S)-1-ethoxycarbonyl)ethyl)phosphonamido]furanyl}thiazole]
Goto-Kakizaki (GK) rats; GK rats fasted from one day before dosing, p=0.0236, t-test
  blood glucose lowering rate at 4 hours after administration vs corresponding control group: significantly reduced
Goto-Kakizaki (GK) rats; GK rats, both groups given Compound A, p=0.0158, t-test
  blood glucose lowering rate at 4 hours, fasting group vs non-fasting group: significantly lower
Goto-Kakizaki (GK) rats; non-fasting GK rats, p=0.0196, t-test
  blood glucose lowering rate at 4 hours after administration vs corresponding control group: significantly reduced
[1]; AM-metformin/PM-Compound A compared with AM-Compound A/PM-metformin, same daily doses, p=0.0330, Tukey test
  glycosylated hemoglobin ratio, Group B vs Group A: improved diabetes mellitus more remarkably
[1]; Group A: Compound A at 9:00 AM, metformin at 4:00 PM, p=0.0749, Tukey test
  glycosylated hemoglobin ratio vs control group: not significantly different from that in the control group
[1]; Group B: metformin at 9:00 AM, Compound A at 4:00 PM, p=0.0002, Tukey test
  glycosylated hemoglobin ratio vs control group: significantly lower than that in the control group
